Results as given in patent US20260327191A1, “GSK3a INHIBITORS AND METHODS OF USE THEREOF” (Blueprint Medicines Corporation, priority 2023, published 2026).
pIC50: −log10 of the molar value. Where a name gives a salt, the structure may show the parent alone. Read-outs that look alike come from different tables or passages of the source.

Assays:
human GSK3α = target: T1, human GSK3α (Homo sapiens, UniProt P49840); experiment: In vitro enzymatic activity assay, GSK3α; assay type: biochemical; settings: 1.0 mM ATP, 1.0 μM peptide substrate, 120 min, 25° C
T1 construct: Full length human GSK3α or GSK3B expressed as N-terminal GST fusion proteins; GST (N); purchased Carna Biosciences (Japan); host or cells: baculovirus host
T1 sequence (P49840 whole entry, the tested form may be a part): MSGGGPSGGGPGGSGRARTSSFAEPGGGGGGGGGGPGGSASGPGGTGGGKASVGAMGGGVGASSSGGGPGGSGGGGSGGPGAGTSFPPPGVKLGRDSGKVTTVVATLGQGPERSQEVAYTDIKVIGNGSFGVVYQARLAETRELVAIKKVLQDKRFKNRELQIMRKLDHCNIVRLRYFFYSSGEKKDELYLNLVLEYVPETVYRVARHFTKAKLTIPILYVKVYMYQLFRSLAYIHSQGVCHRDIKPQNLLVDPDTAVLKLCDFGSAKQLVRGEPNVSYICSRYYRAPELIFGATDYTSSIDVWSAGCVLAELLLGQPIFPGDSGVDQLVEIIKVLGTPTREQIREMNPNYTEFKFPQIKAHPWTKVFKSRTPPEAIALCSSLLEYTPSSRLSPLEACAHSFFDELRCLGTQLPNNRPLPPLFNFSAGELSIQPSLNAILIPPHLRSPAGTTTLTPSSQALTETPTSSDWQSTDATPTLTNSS

GSK3A = target: T2, GSK3A (Homo sapiens, UniProt P49840); experiment: NanoBRET cellular target engagement assay, Nanoluc-GSK3A in HEK293 cells; assay type: cell-based; settings: NanoBRET GSK3α IC50, HEK293 cells, tracer K-8, 2 hours, 37° C
T2 construct: expressed in transfected cells
T2 sequence (P49840 whole entry): as the sequence (P49840 whole entry, the tested form may be a part) above

GSK3B [1] = target: T3, GSK3B (Homo sapiens, UniProt P49841); experiment: NanoBRET cellular target engagement assay, Nanoluc-GSK3B in HEK293 cells; assay type: cell-based; design: expressed in transfected cells; settings: NanoBRET GSK3β IC50, HEK293 cells, tracer K-8, 2 hours, 37° C
T3 sequence (P49841 whole entry, the tested form may be a part): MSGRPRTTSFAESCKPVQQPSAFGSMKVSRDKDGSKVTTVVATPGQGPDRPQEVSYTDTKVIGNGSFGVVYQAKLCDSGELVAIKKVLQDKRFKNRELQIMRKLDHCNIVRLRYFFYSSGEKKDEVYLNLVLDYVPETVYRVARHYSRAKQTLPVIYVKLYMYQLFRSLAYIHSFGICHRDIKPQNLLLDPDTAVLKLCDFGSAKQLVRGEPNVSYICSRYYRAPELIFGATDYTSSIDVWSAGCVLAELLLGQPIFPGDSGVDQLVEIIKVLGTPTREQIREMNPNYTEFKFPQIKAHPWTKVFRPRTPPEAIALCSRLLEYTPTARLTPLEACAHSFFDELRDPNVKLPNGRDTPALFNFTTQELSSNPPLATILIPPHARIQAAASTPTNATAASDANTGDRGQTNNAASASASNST

GSK3B [2] = target: T3, GSK3B; experiment: In vitro enzymatic activity assay, GSK3β; assay type: biochemical; design: Full length human GSK3α or GSK3B expressed as N-terminal GST fusion proteins; GST (N); purchased Carna Biosciences (Japan); host or cells: baculovirus host; settings: 1.0 mM ATP, 1.0 μM peptide substrate, 120 min, 25° C

SMILES | pIC50 (human GSK3α; read-out: Enzyme GSK3α (IC50)) | pIC50 (GSK3A) | pIC50 (GSK3B [1]) | pIC50 (GSK3B [2]; read-out: Enzyme GSK3β (IC50)) | pIC50 (human GSK3α; Enzyme GSK3α (IC50)) | pIC50 (GSK3B [2]; Enzyme GSK3β (IC50))
CN(C)c1cc(Cl)c(-n2cnc(N)c(C(=O)Nc3cncc([C@@H]4CCCCN4)c3)c2=O)c(Cl)c1 [Example 123, (S)-4-amino-1-(2,6-dichloro-4-(dimethylamino)phenyl)-6-oxo-N-(5-(piperidin-2-yl)pyridin-3-yl)-1,6-dihydropyrimidine-5-carboxamide] | 8.32 | 8.48 | 6.69 | 6.57 |  | 
CC(C)Oc1cc(Cl)c(-n2cnc(N)c(C(=O)Nc3cncc([C@@H]4CCCCN4)c3)c2=O)c(Cl)c1 [Example 124, (S)-4-amino-1-(2,6-dichloro-4-isopropoxyphenyl)-6-oxo-N-(5-(piperidin-2-yl)pyridin-3-yl)-1,6-dihydropyrimidine-5-carboxamide] | 8.15 | 8.11 | 6.39 | 6.41 |  | 
CCCOc1cc(C)c(-n2cnc(N)c(C(=O)Nc3cncc([C@H]4CCCCN4)c3)c2=O)c(C)c1 [Example 125, (R)-4-amino-1-(2,6-dimethyl-4-propoxyphenyl)-6-oxo-N-(5-(piperidin-2-yl)pyridin-3-yl)-1,6-dihydropyrimidine-5-carboxamide] | 8.31 | 8.57 | 6.79 | 6.53 |  | 
CCCOc1cc(C)c(-n2cnc(N)c(C(=O)Nc3cncc(CNC)c3)c2=O)c(C)c1 [Example 127, 4-amino-1-(2,6-dimethyl-4-propoxyphenyl)-N-(5-((methylamino)methyl)pyridin-3-yl)-6-oxo-1,6-dihydropyrimidine-5-carboxamide] | 7.73 | 8.02 | 6.19 | 6.11 |  | 
CCOCc1cc(C)c(-n2cnc(N)c(C(=O)Nc3cncc([C@H]4CCCCN4)c3)c2=O)c(C)c1 [Example 131, (R)-4-amino-1-(4-(ethoxymethyl)-2,6-dimethylphenyl)-6-oxo-N-(5-(piperidin-2-yl)pyridin-3-yl)-1,6-dihydropyrimidine-5-carboxamide] | 8.31 | 8.64 | 6.80 | 6.70 |  | 
CCOc1cc(Cl)c(-n2cnc(N)c(C(=O)Nc3cncc([C@@H]4CCCCN4)c3)c2=O)c(Cl)c1 [Example 133, (S)-4-amino-1-(2,6-dichloro-4-ethoxyphenyl)-6-oxo-N-(5-(piperidin-2-yl)pyridin-3-yl)-1,6-dihydropyrimidine-5-carboxamide] | 8.01 | 8.21 | 6.46 | 6.29 |  | 
Cc1cc(C)c(-n2cnc(N)c(C(=O)Nc3cncc([C@H]4CCCCN4)c3)c2=O)c(C)c1 [Example 145, (R)-4-amino-1-mesityl-6-oxo-N-(5-(piperidin-2-yl)pyridin-3-yl)-1,6-dihydropyrimidine-5-carboxamide] | 8.52 | 9.00 | 7.02 | 6.89 |  | 
Nc1ncn(-c2c(Cl)cc(F)cc2Cl)c(=O)c1C(=O)Nc1cncc([C@@H]2CCCN2)c1 [Example 149, (S)-4-amino-1-(2,6-dichloro-4-fluorophenyl)-6-oxo-N-(5-(pyrrolidin-2-yl)pyridin-3-yl)-1,6-dihydropyrimidine-5-carboxamide] | 7.87 | 8.07 | 6.29 | 6.26 |  | 
Nc1ncn(-c2c(Cl)cncc2Cl)c(=O)c1C(=O)Nc1cncc([C@H]2CCCCN2)c1 [Example 152, (R)-4-amino-1-(3,5-dichloropyridin-4-yl)-6-oxo-N-(5-(piperidin-2-yl)pyridin-3-yl)-1,6-dihydropyrimidine-5-carboxamide] | 8.57 | 8.62 | 6.76 | 6.92 |  | 
CCNCc1cncc(NC(=O)c2c(N)ncn(-c3c(C)cc(CC(F)F)cc3C)c2=O)c1 [Example 156, 4-amino-1-(4-(2,2-difluoroethyl)-2,6-dimethylphenyl)-N-(5-((ethylamino)methyl)pyridin-3-yl)-6-oxo-1,6-dihydropyrimidine-5-carboxamide] | 7.46 | 8.09 | 6.02 | 5.90 |  | 
COCc1cc(C)c(-n2cnc(N)c(C(=O)Nc3cncc(C4(N)CCC4)c3)c2=O)c(C)c1 [Example 157, 4-amino-N-(5-(1-aminocyclobutyl)pyridin-3-yl)-1-(4-(methoxymethyl)-2,6-dimethylphenyl)-6-oxo-1,6-dihydropyrimidine-5-carboxamide] | 7.49 | 7.95 | 5.94 | 5.88 |  | 
Cc1cc(CS(C)(=O)=O)cc(C)c1-n1cnc(N)c(C(=O)Nc2cncc([C@H]3CCCCN3)c2)c1=O [Example 158, (R)-4-amino-1-(2,6-dimethyl-4-((methylsulfonyl)methyl)phenyl)-6-oxo-N-(5-(piperidin-2-yl)pyridin-3-yl)-1,6-dihydropyrimidine-5-carboxamide] | 8.03 | 7.43 | 6.27 | 6.45 |  | 
Cc1cc(F)cc(C)c1-n1cnc(N)c(C(=O)Nc2cncc([C@H]3CCCCN3)c2)c1=O [Example 161, (R)-4-amino-1-(4-fluoro-2,6-dimethylphenyl)-6-oxo-N-(5-(piperidin-2-yl)pyridin-3-yl)-1,6-dihydropyrimidine-5-carboxamide trifluoroacetate] | 8.14 | 8.52 | 6.54 | 6.42 |  | 

Further lines, results first:

pIC50 (human GSK3α; read-out: Enzyme GSK3α (IC50)) | pIC50 (GSK3A) | pIC50 (GSK3B [1]) | pIC50 (GSK3B [2]; read-out: Enzyme GSK3β (IC50)) | pIC50 (human GSK3α; Enzyme GSK3α (IC50)) | pIC50 (GSK3B [2]; Enzyme GSK3β (IC50)) | SMILES
8.25 | 8.27 | 6.52 | 6.66 |  |  | Cc1cc(C(F)(F)F)cc(C)c1-n1cnc(N)c(C(=O)Nc2cncc([C@H]3CCCCN3)c2)c1=S [Example 162, (R)-4-amino-1-(2,6-dimethyl-4-(trifluoromethyl)phenyl)-N-(5-(piperidin-2-yl)pyridin-3-yl)-6-thioxo-1,6-dihydropyrimidine-5-carboxamide trifluoroacetate]
8.25 | 8.55 | 6.69 | 6.60 |  |  | COCc1cc(C)c(-n2cnc(N)c(C(=O)Nc3cncc([C@H]4CCCCN4)c3)c2=S)c(C)c1 [Example 163, (R)-4-amino-1-(4-(methoxymethyl)-2,6-dimethylphenyl)-N-(5-(piperidin-2-yl)pyridin-3-yl)-6-thioxo-1,6-dihydropyrimidine-5-carboxamide trifluoroacetate]
7.53 | 8.01 | 5.93 | 5.73 |  |  | CNCCc1c(NC(=O)c2c(N)ncn(-c3c(C)cccc3Cl)c2=O)cccc1OC [Example 164, 4-amino-1-((S)-2-chloro-6-methylphenyl)-N-(3-methoxy-2-(2-(methylamino)ethyl)phenyl)-6-oxo-1,6-dihydropyrimidine-5-carboxamide]
7.97 | 8.03 | 5.95 | 6.36 |  |  | CCOc1cc(Cl)c(-n2cnc(N)c(C(=O)Nc3cncc(CNCCS(C)(=O)=O)c3)c2=O)c(Cl)c1 [Example 165, 4-amino-1-(2,6-dichloro-4-ethoxyphenyl)-N-(5-(((2-(methylsulfonyl)ethyl)amino)methyl)pyridin-3-yl)-6-oxo-1,6-dihydropyrimidine-5-carboxamide]
7.66 | 7.79 | 6.28 | 6.28 |  |  | NCc1cccc(NC(=O)c2c(N)ncn(-c3c(Cl)cccc3Cl)c2=O)c1OC(F)F [Example 170, 4-amino-N-(3-(aminomethyl)-2-(difluoromethoxy)phenyl)-1-(2,6-dichlorophenyl)-6-oxo-1,6-dihydropyrimidine-5-carboxamide trifluoroacetate]
7.35 | 7.52 | 6.07 | 5.89 |  |  | NCc1cccc(NC(=O)c2c(N)ncn(-c3c(Cl)cccc3Cl)c2=O)c1C(F)(F)F [Example 171, 4-amino-N-(3-(aminomethyl)-2-(trifluoromethyl)phenyl)-1-(2,6-dichlorophenyl)-6-oxo-1,6-dihydropyrimidine-5-carboxamide]
 | 5.82 | 4.60 |  | 5.73 | 5.00 | Nc1ncn(-c2c(O)cccc2Cl)c(=O)c1C(=O)Nc1cncc([C@@H]2CCCCN2)c1 [Example 173, (S)-4-amino-1-(2-chloro-6-hydroxyphenyl)-6-oxo-N-(5-(piperidin-2-yl)pyridin-3-yl)-1,6-dihydropyrimidine-5-carboxamide]
8.29 | 8.59 | 6.72 | 6.56 |  |  | CCC[C@@H](N)c1cncc(NC(=O)c2c(N)ncn(-c3c(C)cc(COC)cc3C)c2=O)c1 [Example 176, (R)-4-amino-N-(5-(1-aminobutyl)pyridin-3-yl)-1-(4-(methoxymethyl)-2,6-dimethylphenyl)-6-oxo-1,6-dihydropyrimidine-5-carboxamide]
8.43 | 8.48 | 6.75 | 6.59 |  |  | COc1cc(Cl)c(-n2cnc(N)c(C(=O)Nc3cncc(C4(N)CCC4)c3)c2=O)c(Cl)c1 [Example 179, 4-amino-N-(5-(1-aminocyclobutyl)pyridin-3-yl)-1-(2,6-dichloro-4-methoxyphenyl)-6-oxo-1,6-dihydropyrimidine-5-carboxamide]
